Each compound was assayed on SKOV3 (assay: Anti-cancer activity against ovarian cancer cells SKOV3 (cell killing in solution / in vitro cell proliferation)). Conditions: Homo sapiens, SK-OV-3, ovarian cancer cells SKOV3.
Assay type: cell-based
Experimental: Biotinylated LLS2 was synthesized in solution and loaded it onto a streptavidin-coated plate. The biotinylated LLS2 immobilized on the plate killed approximately 21% of SKOV3 ovarian cancer cells at 100 μM loading, 16% at 50 μM and 14% at 25 μM (FIG. 4). The killing effect of the LLS2 compound was also tested in solution. […] In addition, LLS2 can kill pancreatic cancer cell line XPA3, prostate cancer cell line PC3, colon cancer cell line HT29, breast cancer cell line MCF7 and lung cancer cell line A549 (FIG. 4).

Q: For `NC(=O)CC(NCc1ccc(Cl)c(Cl)c1)c1ccc2c(c1)nc(-c1ccc(-c3cccc(CO)n3)cc1)n2CC12CC3CC(CC(C3)C1)C2` (stereo not drawn) [LLS7, 3-(1-(((1s,3s)-adamantan-1-yl)methyl)-2-(4-(6-(hydroxymethyl)pyridin-2-yl)phenyl)-1H-benzo[d]imidazol-5-yl)-3-((3,4-dichlorobenzyl)amino)propanamide], which IC50 is on record?
A: > 50 µM

Q: For `CC(=O)OCCN(CCOC(C)=O)c1ccc(-c2nc3cc(C(CC(N)=O)NCc4ccc(F)c(F)c4)ccc3n2CC23CC4CC(CC(C4)C2)C3)cc1` (stereo not drawn) [LLS8, ((4-(1-(((1s,3s)-adamantan-1-yl)methyl)-5-(3-amino-1-((3,4-difluorobenzyl)amino)-3-oxopropyl)-1H-benzo[d]imidazol-2-yl)phenyl)azanediyl)bis(ethane-2,1-diyl) Diacetate], which IC50 is on record?
A: 16.7 µM

Q: Which IC50 does the source give for `CC(=O)OCCN(CCOC(C)=O)c1ccc(-c2nc3cc(C(CC(N)=O)NC(=O)[C@@H](N)Cc4ccc(F)c(F)c4)ccc3n2Cc2ccc(OC(F)(F)F)cc2)cc1` (stereo partly drawn) [LLS9, ((4-(5-(3-amino-1-((S)-2-amino-3-(3,4-difluorophenyl)propanamido)-3-oxopropyl)-1-(4-(trifluoromethoxy)benzyl)-1H-benzo[d]imidazol-2-yl)phenyl)azanediyl)bis(ethane-2,1-diyl) Diacetate] here?
A: 17.6 µM

Q: For `CC(=O)OCCN(CCOC(C)=O)c1ccc(-c2nc3cc(C(CC(N)=O)NC(=O)[C@@H](N)Cc4ccc(Cl)c(Cl)c4)ccc3n2Cc2cc(F)ccc2F)cc1` (stereo partly drawn) [LLS10, ((4-(5-(3-amino-1-((S)-2-amino-3-(3,4-dichlorophenyl)propanamido)-3-oxopropyl)-1-(2,5-difluorobenzyl)-1H-benzo[d]imidazol-2-yl)phenyl)azanediyl)bis(ethane-2,1-diyl) Diacetate], which IC50 is on record?
A: 36.4 µM

Q: How did the IC50 turn out when `CC(=O)OCCN(CCOC(C)=O)c1ccc(-c2nc3cc(C(CC(N)=O)NC(=O)[C@@H](N)Cc4ccc(F)c(F)c4)ccc3n2Cc2ccc(F)c(F)c2)cc1` (stereo partly drawn) [LLS11, ((4-(5-(3-amino-1-((S)-2-amino-3-(3,4-difluorophenyl)propanamido)-3-oxopropyl)-1-(3,4-difluorobenzyl)-1H-benzo[d]imidazol-2-yl)phenyl)azanediyl)bis(ethane-2,1-diyl) Diacetate] was run?
A: > 50 µM

Q: Which IC50 does the source give for `NC(=O)CC(NC(=O)[C@@H](N)Cc1ccc(Cl)c(Cl)c1)c1ccc2c(c1)nc(-c1ccc(N(CCO)CCO)cc1)n2Cc1ccc(F)c(F)c1` (stereo partly drawn) [LLS12, (2S)-2-amino-N-(3-amino-1-(2-(4-(bis(2-hydroxyethyl)amino)phenyl)-1-(3,4-difluorobenzyl)-1H-benzo[d]imidazol-5-yl)-3-oxopropyl)-3-(3,4-dichlorophenyl)propanamide] here?
A: > 50 µM

Q: `NC(=O)CC(NC(=O)[C@@H](N)Cc1ccc(Cl)c(Cl)c1)c1ccc2c(c1)nc(-c1ccc(N(CCO)CCO)cc1)n2Cc1cc(F)ccc1F` (stereo partly drawn) [LLS13, (2S)-2-amino-N-(3-amino-1-(2-(4-(bis(2-hydroxyethyl)amino)phenyl)-1-(2,5-difluorobenzyl)-1H-benzo[d]imidazol-5-yl)-3-oxopropyl)-3-(3,4-dichlorophenyl)propanamide] was tested. Which IC50 did it give?
A: > 50 µM

Q: Which IC50 does the source give for `NC(=O)CC(NCc1c(Cl)cccc1Cl)c1ccc2c(c1)nc(-c1ccc(N(CCO)CCO)cc1)n2Cc1ccc(F)c(F)c1` (stereo not drawn) [LLS14, 3-(2-(4-(bis(2-hydroxyethyl)amino)phenyl)-1-(3,4-difluorobenzyl)-1H-benzo[d]imidazol-5-yl)-3-((2,6-dichlorobenzyl)amino)propanamide] here?
A: 29.2 µM

Q: With `CC(=O)OCCN(CCOC(C)=O)c1ccc(-c2nc3cc(C(CC(N)=O)NC(=O)Nc4ccc(C(F)(F)F)c(Cl)c4)ccc3n2Cc2ccc(F)c(F)c2)cc1` (stereo not drawn) [LLS15, ((4-(5-(3-amino-1-(3-(3-chloro-4-(trifluoromethyl)phenyl)ureido)-3-oxopropyl)-1-(3,4-difluorobenzyl)-1H-benzo[d]imidazol-2-yl)phenyl)azanediyl)bis(ethane-2,1-diyl) Diacetate] as the compound, how does the IC50 read?
A: > 50 µM

Q: With `CC(=O)OCCN(CCOC(C)=O)c1ccc(-c2nc3cc(C(CC(N)=O)NC(=O)Nc4ccc(Cl)c(Cl)c4)ccc3n2Cc2ccc(F)c(F)c2)cc1` (stereo not drawn) [LLS16, ((4-(5-(3-amino-1-(3-(3,4-dichlorophenyl)ureido)-3-oxopropyl)-1-(3,4-difluorobenzyl)-1H-benzo[d]imidazol-2-yl)phenyl)azanediyl)bis(ethane-2,1-diyl) Diacetate] as the compound, how does the IC50 read?
A: 35.1 µM

Q: `CC(=O)OCCN(CCOC(C)=O)c1ccc(-c2nc3cc(C(CC(N)=O)NCc4ccc(Cl)c(Cl)c4)ccc3n2Cc2ccc(F)c(F)c2)cc1` (stereo not drawn) [LLS17, ((4-(5-(3-amino-1-((3,4-dichlorobenzyl)amino)-3-oxopropyl)-1-(3,4-difluorobenzyl)-1H-benzo[d]imidazol-2-yl)phenyl)azanediyl)bis(ethane-2,1-diyl) Diacetate] was tested. Which IC50 did it give?
A: 10.6 µM

Q: Which IC50 does the source give for `NC(=O)CC(NC(=O)[C@@H](N)Cc1ccc(F)c(F)c1)c1ccc2c(c1)nc(-c1ccc(N(CCO)CCO)cc1)n2Cc1ccc(F)c(F)c1` (stereo partly drawn) [LLS18, (2S)-2-amino-N-(3-amino-1-(2-(4-(bis(2-hydroxyethyl)amino)phenyl)-1-(3,4-difluorobenzyl)-1H-benzo[d]imidazol-5-yl)-3-oxopropyl)-3-(3,4-difluorophenyl)propanamide] here?
A: > 50 µM

Q: `NC(=O)CC(NCc1ccc(Cl)c(Cl)c1)c1ccc2c(c1)nc(-c1ccc(N(CCO)CCO)cc1)n2Cc1ccc(F)c(F)c1` (stereo not drawn) [LLS19, 3-(2-(4-(bis(2-hydroxyethyl)amino)phenyl)-1-(3,4-difluorobenzyl)-1H-benzo[d]imidazol-5-yl)-3-((3,4-dichlorobenzyl)amino)propanamide] was tested. Which IC50 did it give?
A: 16.8 µM

Q: With `CC(=O)OCCN(CCOC(C)=O)c1ccc(-c2nc3cc(C(CC(N)=O)NCc4ccc(Cl)c(Cl)c4)ccc3n2Cc2ccc(Cl)c(Cl)c2)cc1` (stereo not drawn) [LLS20, ((4-(5-(3-amino-1-((3,4-dichlorobenzyl)amino)-3-oxopropyl)-1-(3,4-dichlorobenzyl)-1H-benzo[d]imidazol-2-yl)phenyl)azanediyl)bis(ethane-2,1-diyl) Diacetate] as the compound, how does the IC50 read?
A: 7.5 µM

Q: For `CC(=O)OCCN(CCOC(C)=O)c1ccc(-c2nc3cc(C(CC(N)=O)NCc4ccc(Cl)c(Cl)c4)ccc3n2Cc2ccc(F)c(Cl)c2)cc1` (stereo not drawn) [LLS21, ((4-(5-(3-amino-1-((3,4-dichlorobenzyl)amino)-3-oxopropyl)-1-(3-chloro-4-fluorobenzyl)-1H-benzo[d]imidazol-2-yl)phenyl)azanediyl)bis(ethane-2,1-diyl) Diacetate], which IC50 is on record?
A: 8.9 µM

Q: How did the IC50 turn out when `CC(=O)OCCN(CCOC(C)=O)c1ccc(-c2nc3cc(C(N)CC(N)=O)ccc3n2Cc2ccc(C(F)(F)F)c(F)c2)cc1` (stereo not drawn) [LLS22, ((4-(5-(1,3-diamino-3-oxopropyl)-1-(3-fluoro-4-(trifluoromethyl)benzyl)-1H-benzo[d]imidazol-2-yl)phenyl)azanediyl)bis(ethane-2,1-diyl) Diacetate] was run?
A: > 50 µM

Q: `CC(=O)OCCN(CCOC(C)=O)c1ccc(-c2nc3cc(C(CC(N)=O)NCc4ccc(Cl)c(Cl)c4)ccc3n2Cc2ccc(OC(F)(F)F)cc2)cc1` (stereo not drawn) [LLS23, ((4-(5-(3-amino-1-((3,4-dichlorobenzyl)amino)-3-oxopropyl)-1-(4-(trifluoromethoxy)benzyl)-1H-benzo[d]imidazol-2-yl)phenyl)azanediyl)bis(ethane-2,1-diyl) Diacetate] was tested. Which IC50 did it give?
A: 8.4 µM

Q: How did the IC50 turn out when `NC(=O)CC(NCc1ccc(Cl)c(Cl)c1)c1ccc2c(c1)nc(-c1ccc(N3CCOCC3)cc1)n2Cc1ccc(OC(F)(F)F)cc1` (stereo not drawn) [LLS24, 3-((3,4-dichlorobenzyl)amino)-3-(2-(4-morpholinophenyl)-1-(4-(trifluoromethoxy)benzyl)-1H-benzo[d]imidazol-5-yl)propanamide] was run?
A: 40.1 µM

From patent publication US10844052B2, “LLS compounds for treatment of cancer” (THE REGENTS OF THE UNIVERSITY OF CALIFORNIA, priority 2016, dated 2020)
